Test results from ChEMBL document CHEMBL1201862, “PubChem BioAssay data set” (2004).
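Cells were grown in 96-well plates and exposed to each compound for 48 hours at five concentrations; endpoints were interpolated linearly between bracketing concentrations, or set to the highest concentration if not reached. Here, GI50 denotes the concentration required for 50% inhibition of growth.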 Activity calls are given as the source filed them. No stated cut-off is given here; in the data, active = GI50 up to about 1.1 µM and inactive = higher.

Columns and labels:
Experiment in all cases: NCI anticancer screen, dose series, 48 h
A498 = tested on: A498
A549 = tested on: A549
CCRF-CEM = tested on: CCRF-CEM
COLO 205 = tested on: COLO 205
DLD-1 = tested on: DLD-1
DMS-114 = tested on: DMS-114
DMS-273 = tested on: DMS-273
EKVX = tested on: EKVX
HCC 2998 = tested on: HCC 2998
HCT-116 = tested on: HCT-116
HCT-15 = tested on: HCT-15
HL-60 = tested on: HL-60
HOP-62 = tested on: HOP-62
HOP-92 = tested on: HOP-92
HT-29 = tested on: HT-29
IGROV-1 = tested on: IGROV-1
K562 = tested on: K562
KM-20L2 = tested on: KM-20L2
KM12 = tested on: KM12
LOX IMVI = tested on: LOX IMVI
M19-MEL = tested on: M19-MEL
MCF7 = tested on: MCF7
MOLT-4 = tested on: MOLT-4
Malme-3M = tested on: Malme-3M
NCI-H226 = tested on: NCI-H226
NCI-H23 = tested on: NCI-H23
NCI-H460 = tested on: NCI-H460
NCI-H522 = tested on: NCI-H522
NCI/ADR-RES = tested on: NCI/ADR-RES
OVCAR-3 = tested on: OVCAR-3
OVCAR-4 = tested on: OVCAR-4
OVCAR-5 = tested on: OVCAR-5
OVCAR-8 = tested on: OVCAR-8
RPMI-8226 = tested on: RPMI-8226
RXF 393 = tested on: RXF 393
SF-268 = tested on: SF-268
SF-295 = tested on: SF-295
SF-539 = tested on: SF-539
SK-MEL-28 = tested on: SK-MEL-28
SK-MEL-2 = tested on: SK-MEL-2
SK-MEL-5 = tested on: SK-MEL-5
SK-OV-3 = tested on: SK-OV-3
SN12C = tested on: SN12C
SNB-19 = tested on: SNB-19
SNB-75 = tested on: SNB-75
SNB-78 = tested on: SNB-78
SW-620 = tested on: SW-620
U-251 = tested on: U-251
UACC-257 = tested on: UACC-257
UACC-62 = tested on: UACC-62
UO-31 = tested on: UO-31

With `CCCCCCCCC1=CCC(CN(C)C)C1=O` (stereo unspecified) the GI50 (A498) was > 43.9 µM (inactive), the GI50 (A549) was > 100 µM (inactive) and the GI50 (CCRF-CEM) was 10.6 µM (inactive). For the same compound, the GI50 (COLO 205) was 18.8 µM (inactive), the GI50 (DLD-1) was 18.8 µM (inactive) and the GI50 (DMS-114) was 18.7 µM (inactive). For the same compound, the GI50 (DMS-273) was 18.7 µM (inactive), the GI50 (EKVX) was 23.6 µM (inactive) and the GI50 (HCC 2998) was 14 µM (inactive). The GI50 (HCT-116) was 19.4 µM (inactive), the GI50 (HCT-15) was 17.8 µM and the GI50 (HL-60) was 12 µM (inactive). The GI50 (HOP-62) was > 31.6 µM (inactive), the GI50 (HOP-92) was 16.9 µM (inactive) and the GI50 (HT-29) was 19.4 µM (inactive). For the same compound, the GI50 (IGROV-1) was 19.4 µM (inactive), the GI50 (K562) was 9.82 µM (inactive) and the GI50 (KM-20L2) was 21.9 µM (inactive). For the same compound, the GI50 (KM12) was 15.1 µM (inactive), the GI50 (LOX IMVI) was 16.6 µM (inactive) and the GI50 (M19-MEL) was 17.8 µM (inactive). For the same compound, the GI50 (MCF7) was 4.69 µM (inactive), the GI50 (MOLT-4) was 19 µM (inactive) and the GI50 (Malme-3M) was 17.8 µM (inactive). The GI50 (NCI-H226) was > 51.4 µM (inactive), the GI50 (NCI-H23) was 19.9 µM (inactive) and the GI50 (NCI-H460) was 16.3 µM (inactive). The GI50 (NCI-H522) was 16.7 µM (inactive), the GI50 (NCI/ADR-RES) was 20.5 µM (inactive) and the GI50 (OVCAR-3) was 18.3 µM (inactive). The GI50 (OVCAR-4) was 23.6 µM (inactive), the GI50 (OVCAR-5) was 33.3 µM (inactive) and the GI50 (OVCAR-8) was 17.9 µM (inactive). For the same compound, the GI50 (RPMI-8226) was 1.34 µM (inactive), the GI50 (RXF 393) was 19.7 µM (inactive) and the GI50 (SF-268) was 18.3 µM (inactive). For the same compound, the GI50 (SF-295) was > 42.1 µM (inactive), the GI50 (SF-539) was 19.7 µM (inactive) and the GI50 (SK-MEL-28) was 20.1 µM (inactive). The GI50 (SK-MEL-2) was 21.3 µM (inactive), the GI50 (SK-MEL-5) was 20.1 µM (inactive) and the GI50 (SK-OV-3) was > 100 µM (inactive). The GI50 (SN12C) was 17.1 µM (inactive), the GI50 (SNB-19) was > 55.2 µM (inactive) and the GI50 (SNB-75) was 17.7 µM (inactive). The GI50 (SNB-78) was 23.8 µM (inactive), the GI50 (SW-620) was 19.9 µM (inactive) and the GI50 (U-251) was 18.1 µM (inactive). The GI50 (UACC-257) was 20.9 µM (inactive), the GI50 (UACC-62) was 18.1 µM (inactive) and the GI50 (UO-31) was 17 µM (inactive).
